Results taken from US11058717B2, “Application of substances containing AuCs in preparing medicine for preventing and treating Alzheimer's disease” (Shenzhen Profound-View Pharma Tech Co., Ltd, priority 2017, dated 2021).

What was measured:
[1] = target: T1, Aβ(1-40) (Homo sapiens, UniProt P05067); assay: AFM topography of Aβ(1-40) after coincubation for 48 h; type: biochemical; conditions: coincubated for 48 h
T1 construct: Freeze-dried powder of amyloid polypeptide Aβ(1-40) (Invitrogen Corp.); purchased Invitrogen Corp
Description: Panel A is the AFM topography after Aβ(1-40) was incubated alone for 48 h. Panel B is an AFM topography after Aβ(1-40) was coincubated with L-NIBC for 48 h. Panel C and panel D are AFM topographies after Aβ(1-40) was coincubated with gold nanoparticles with an average particle size of 6.0 nm and 3.6 nm respectively (modified with L-NIBC) for 48 h. And panel E is an AFM topography after Aβ(1-40) was coincubated with AuCs in an average particle size of 1.8 nm (modified with L-NIBC) for 48 h.

[2] = system: SH-SY5Y neuroblastoma cell line; assay: Aβ induced AD cell model, cell viability by CCK-8; type: cell-based; conditions: 0.01-20 ppm (L-NIBC 20 ppm); 20 μM Aβ(1-40), 24 h
Description: The cell viability was used as an index in the experiment of this embodiment. […] The cells used in the experiment were SH-SY5Y neuroblastoma cell line. […] Specific method:
1) SH-sy5y cells (cells had passed to the sixth generation) in logarithmic growth phase were diluted with complete medium (MEM+10% FBS+1% penicillin-streptomycin) to get a cell suspension in a density of 5×10^4/mL. The suspension was inoculated 200 μL per well into a 96-well plate, and cultivated in an incubator with 5% CO2 at 37° C. A sample was added when the cells attached to the wells.
2) 100 μL ligand-modified AuCs samples or ligand-modified gold nanoparticles samples, at different particle sizes and at concentrations of 0.04 ppm, 0.4 ppm, 4 ppm, 20 ppm, 40 ppm and 80 ppm respectively, which were dissolved by maintenance medium (MEM+2% FBS+1% penicillin-streptomycin) were added into the incubated suspension obtained from Step 1). After incubating in the incubator for 2 h, 100 μL 80 μM Aβ(1-40) was added, and then the mixture was incubated in the incubator for 24 h. […] The culture medium was removed, maintenance medium (MEM) containing 10% CCK-8 at 100 μL/well was added and was incubated for 4 h, the absorbance of each well at 450 nm was measured to reflect the prevention and treatment effects of ligand-modified AuCs on Aβ(1-40) lesion.

[3] = target: T2, α-syn (Homo sapiens, UniProt P37840); assay: In vitro α-syn aggregation kinetics (ThT fluorescent labeling); type: biochemical; conditions: L-NIBC only, 1.0 and 10.0 ppm; 35 μM α-syn, 37° C.
T2 construct: purchased Bachem Corp
Excerpt: Thioflavin T (abbreviation: ThT) is a dye for dyeing amyloid fibers specifically. […] When it encounters amyloid polypeptide or protein with a fiber structure, it will immediately couple with the amyloid polypeptides or proteins and its fluorescence intensity will increase exponentially. For this reason, ThT is widely used as markers to monitor amyloidosis of peptides or proteins. This embodiment utilizes ThT fluorescent labeling method to monitor the kinetics process of fibrosis aggregation of α-syn with the existence of AuCs. The specific experiment method was as follows:
Pretreatment of α-syn monomers: Freeze-dried powder (Bachem Corp.) of α-syn was dissolved in HFIP to obtain a 1 g/L α-syn solution. The solution was incubated at room temperature for 2-4 h after sealing, then blowed to dry HFIP by high-purity nitrogen in a fume hood. […]
Sample preparation and detection: Ligand-modified AuCs in different concentrations listed in Table 1 were added to 35 μM α-syn PBS solutions respectively, and incubated continuously in a 96-well plate at 37° C., by ThT fluorescent labeling method, and were monitored the fluorescence intensity by microplate reader once every 10 minutes. The kinetic process of α-syn aggregation was characterized through the change of fluorescence intensity of ThT. […]

T1 sequence (P05067 672-711 limits assumed): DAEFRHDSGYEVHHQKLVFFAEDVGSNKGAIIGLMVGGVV

For CC(C)C(=O)N[C@@H](CS)C(=O)O [L-NIBC, N-isobutyryl-L-cysteine], the “Aβ(1-40) fibers in AFM topography” value [1] was “no obvious effect on the formation of Aβ(1-40) fibers”, the “effect on cell viability in Aβ induced AD cell model” value [2] was “did not improve cell viability” and the “effect on kinetics of α-syn aggregation” value [3] was “did not have an obvious effect”.
